Legend:
[1] = Two-photon fluorescence spectra in the presence of copper(I) ions (Fd value); assay type: physicochemical; conditions: at 750 nm, HEPES buffer, 2 μM copper(I) ions
Source text: Referring to FIG. 7, the two-photon spectrum of the compound of Chemical Formula 2-Cu^+ complex in HEPES buffer indicated an Fd value of 67 GM at 750 nm, more than 13-fold as compared to BODIPY (<5 GM 750 nm). Accordingly, it can be conjectured that a sample stained with the compound of Chemical Formula 2 gives a much brighter two-photon image than one stained with the BODIPY dye.

[2] = system: HeLa cells; assay: Two-photon microscopy detection of copper(I) ions in cultured HeLa cells; assay type: cell-based; conditions: compound 2 μM, 37° C., 20 minutes
Source text: In order to investigate the applicability of the compound of Chemical Formula 2 in biological cells, copper(I) ions in cultured HeLa cells were detected by two-photon microscopy.

[3] = One-photon fluorescence intensity at different pH's with and without copper(I) ions; conditions: compound 2 μM, HEPES buffer, 0 and 2 μM copper(I) ions, biologically significant pH ranges, excitation 365 nm
Source text: Light with a wavelength of 365 nm was used for excitation. […] Thus, from FIG. 5 and FIG. 6, it can be seen that the compound of Chemical Formula 2 according to the present disclosure is capable of detecting copper(I) ions with little interference by pH or other metal ion.

[4] = Reactivity for copper(I) ions compared to competing metal ions (relative fluorescence intensity); conditions: compound 2 μM
Protocol: In FIG. 5, open bars show relative fluorescence intensity of the compound of Chemical Formula 2 (2 μM) resulting from reaction with Na^+, K^+, Mg^2+ and Ca^2+ (1 mM), Hg^2+ (2 μM) and other cations (50 mM) in 20 mM HEPES buffer (pH 7.0) before adding copper(I) ions, and filled bars show relative fluorescence intensity after adding 2 μM copper(I) ions (The cations indicated as numbers below the bars are as follows: (1) Cu^+; (2) Na^+; (3) K^+; (4) Mg^2+; (5) Ca^2+; (6) Mn^2+; (7) Fe^2+, (8) Co^2+; (9) Ni^2+; (10) Cu^2+; (11) Zn^2+; (12) Hg^2+).

[5] = One-photon and two-photon fluorescence titration with free copper(I) ions; assay type: binding; conditions: for Kd: HEPES 20 mM, thiourea 100 μM, pH 7.0, 1:1 binding model
Protocol: Absorption spectra were obtained using a Hewlett-Packard 8453 diode array spectrophotometer and fluorescence spectra were obtained using an Amico-Bowman series 2 luminescence spectrometer equipped with a 1-cm standard quartz cell. Fluorescence quantum yield was determined according to the literature using Coumarin 307 as reference compound (J. N. Demas, G. A. Crosby, J. Phys. Chem. 1971, 75, 991).
FIGS. 2A and 2B show one-photon absorption (FIG. 2A) and fluorescence (FIG. 2B) spectra for the compound of Chemical Formula 2 (2 μM) in the presence of free copper(I) ions (0-360 pM). Referring to FIGS. 2A and 2B, when copper(I) ions were added to the compound of Chemical Formula 2 in HEPES buffer, the fluorescence intensity increased gradually with the concentration of the copper(I) ions, without effect on the absorption spectrum. It may be because the metal ion forms a complex with the compound of Chemical Formula 2 and blocks photoinduced electron transfer (PeT). When the concentration of free copper(I) ion was 360 pM, the fluorescence intensity increased by about 4 times. A similar behavior was also observed for two-photon fluorescence spectra (see FIG. 3).
Dissociation constants (Kd) of the compound of Chemical Formula 2 for one-photon and two-photon processes were calculated from fluorescence titration curves (see FIG. 4) (HEPES buffer was used. [HEPES]=20 mM, [thiourea]=100 μM, pH=7.0).

[6] = Solubility in HEPES buffer by the fluorescence method; assay type: physicochemical; conditions: aqueous buffer, HEPES buffer ([HEPES]=20 mM, pH 7.0)
Protocol: FIGS. 1A and 1B show normalized absorption (FIG. 1A) and fluorescence (FIG. 1B) spectra of the compound of Chemical Formula 2 in 1,4-dioxane, DMF, ethanol and HEPES buffer ([HEPES]=20 mM, pH 7.0). Light with a wavelength of 365 nm was used for excitation. Solubility of the compound of Chemical Formula 2 in HEPES buffer ([HEPES]=20 mM, pH 7.0) was measured as 4.0 μM by the fluorescence method disclosed in the literature (H. M. Kim and B. R. Cho, Acc. Chem. Res., 2009, 42, 863; M. K. Kim, C. S. Lim, J. T. Hong, J. H. Han, H. Y. Jang, H. M. Kim and B. R. Cho, Angew. Chem., Int. Ed., 2010, 49, 364; J. H. Lee, C. S. Lim, Y. S. Tian, J. H. Han and B. R. Cho, J. Am. Chem. Soc., 2010, 132, 1216; H. M. Kim and B. R. Cho, Chem. Asian J., 2011, 6, 58), which is sufficient for staining of cells.

[7] = Dissociation constant for the multiphoton process of the zinc(II) ion-selective probe; assay type: binding; conditions: Zn(II) ions; read-out: Dissociation constant (KdTP) for the multiphoton process
Source text: Accordingly, the compound could be used to detect Zn(II) ions in the picomolar (pM) to nanomolar (nM) range by multiphoton microscopy.

CCSCCSCCN(CCSCCSCC)c1ccc(NC(=O)CN(C)c2ccc3cc(C(C)=O)ccc3c2)cc1 [Chemical Formula 2]
Fd value of the Cu+ complex [1]: 67 GM | TPM image of labeled HeLa cells [2]: very bright TPM image | Dependence of reactivity on pH of reaction solutions [3]: irrelevant of the pH | Interference by Hg2+ ([4]; Hg2+ 2 μM, 20 mM HEPES pH 7.0): only exception | Interference by competing metal ions Na+, K+, Mg2+, Ca2+, Mn2+, Fe2+, Co2+, Ni2+, Cu2+, Zn2+ ([4]; 20 mM HEPES pH 7.0, before and after adding 2 μM copper(I) ions): not interfered | Kd ([5]; read-out: Dissociation constant (Kd) for the copper(I) ion, one-photon process): 0.016 ± 0.002 nM | Kd ([5]; read-out: Dissociation constant (Kd) for the copper(I) ion, two-photon process): 0.02 ± 0.003 nM | Increase of fluorescence intensity on adding copper(I) ions ([5]; free copper(I) ion 360 pM, compound 2 μM, HEPES buffer, one-photon): about 4 times | solubility [6]: 4 µM

CC(=O)c1ccc2cc(N(C)CC(=O)Nc3ccc(NCCN(Cc4ccccn4)Cc4ccccn4)cc3)ccc2c1 [Preparation Example 2]
Kd [7]: 1.1 nM
